Laboratory results from US20180042867A1, “METHODS OF TREATING CANCER” (Mitchell Woods Pharmaceuticals, Inc., priority 2015, published 2018).

Experiments:
PANC-1 cells [1] = settings: cited from earlier work
[2] = system: MDA-MB-231 breast cancer cells; assay: Intracellular lactate, targeted metabolomics (LC/MS); format: cell-based, human; settings: MDA-MB-231, MNF (1 µM), 3 hours
Method: The cells were seeded on 100×20 mm tissue culture plates and maintained at 37° C. under humidified 5% CO2 in air until they reached >70% confluence. The original media was replaced with media containing 0.5 μM or 1 μM MNF and the plates were incubated for an additional 1 hour, unless otherwise indicated. After completion of incubations, the media was aspirated and the cells were washed twice with 10 ml of phosphate buffer saline (pH 7.4) (PBS). The cells were then collected in 10 ml PBS by scrapping and sedimented by centrifugation (1000 rpm, 5 min), and the supernatant discarded. The cell pellets were stored at −80° C. until analyzed. […]
The cells pellets were suspended in 20 μL water, 10 μL of 0.1 mM p-aminohippuric acid as an internal standard was added and the resulting mixture vortex mixed for 1 minute. […] The supernatant was collected and analysed using a system composed of an Agilent Technologies 1100 LC/MSD equipped with a G1322A degasser, G1312A quaternary pump, G1367A autosampler, G1316A column thermostat and G1946D mass spectrometer supplied with electrospray ionization (ESI). […] The compound of interest were monitored in the positive-ion mode for SIM at m/z 162.1 (carnitine), m/z 90.1 (lactate) and m/z 105.1 (3-hydroxybutyrate). The internal standard was monitored at m/z 195.1 (p-aminohippuric acid). […]

PANC-1 = assay: Proliferation in pancreatic cancer (PancCA) cell lines; format: cell-based, human; settings: including PANC-1
PANC-1 cells [3] = assay: Untargeted metabolomics (1D 1H NMR) of intracellular metabolome; format: cell-based, human; settings: PANC-1, MNF 1 μM
Method: The cells were seeded on 100×20 mm tissue culture plates and maintained at 37° C. under humidified 5% CO2 in air until they reached >70% confluence. The original media was replaced with media containing 0.5 μM or 1 μM MNF and the plates were incubated for an additional 1 hour, unless otherwise indicated. After completion of incubations, the media was aspirated and the cells were washed twice with 10 ml of phosphate buffer saline (pH 7.4) (PBS). The cells were then collected in 10 ml PBS by scrapping and sedimented by centrifugation (1000 rpm, 5 min), and the supernatant discarded. The cell pellets were stored at −80° C. until analyzed.
The cell pellet was re-suspended in 1 ml of 80% methanol (cryogenically cold) and incubated at −80° C. for 15 minutes. This suspension was then centrifuged at 13,000×g for 10 minutes at 4° C. The supernatant was collected in an eppendorf tube and the pellet was suspended in 0.25 ml of water. The suspension was vortexed mixed for 1 minute and centrifuged at 13,000×g for 10 minutes at 4° C. The supernatant was collected and mixed with the supernatant collected in the previously step and stream dried under nitrogen. The sample was stored at −80° C. until analyzed.
Sample Preparation and NMR Analysis—Non-Targeted Metabolomics.
The Cell pellet was re-suspended in 1 ml of 80% methanol (cryogenically cold) and incubated at −80° C. for 15 minutes. This suspension was then centrifuged at 13,000×g for 10 minutes at 4° C. The supernatant was collected in an eppendorf tube and the pellet was suspended in 0.25 ml of water. The suspension was vortexed mixed for 1 minute and centrifuged at 13,000×g for 10 minutes at 4° C. The supernatant was collected and mixed with the supernatant collected in the previously step and stream dried under nitrogen. The sample was stored at −80° C. until analyzed. The samples were prepared for NMR experimentation by dissolving in 0.6 ml of 50 mM phosphate buffer (pH 7.2) in 99.8% D2O with 50 μM 3-(tetramethysilane)propionic acid-2,2,3,3-d4 (TMSP). NMR spectra were recorded on a Bruker Avance III-HD 700 MHz spectrometer equipped with a QCI-P cryoprobe and a SampleJet automated sample changer. 1D ^1H spectra were collected using excitation sculpting to remove the solvent signal. A total of 16 k data points with a spectral width of 5482.5 Hz, 8 dummy scans, and 256 scans were used to obtain each spectrum. The data was processed completely in MVAPACK.
An untargeted metabolomics approach using one-dimensional proton nuclear magnetic resonance (1D ^1H NMR) was used to examine the effect of MNF incubation (1 μM, 1 hour) on the intracellular metabolome of PANC-1 cells.

MCF-7 cells [4] = assay: Expression of ABC exporters in MCF-7 cells; format: cell-based, human; settings: incubation with MNF
MDA-MD-231 cells = assay: Expression of ABC exporters in MDA-MB-231 cells; format: cell-based, human; settings: incubation with MNF
Text: See, FIG. 6A. In MDA-MD-231 cells, MNF reduced the expression of P-gp and BCRP while the signal associated with MRP-1 was too faint to detect in the untreated controls as shown in FIG. 6B. As observed in the expression of cyclin D1, the expression of ABC transporters has been associated with EGFR expression and activity and nuclear translocation of PKM2. Thus, the observed effects are consistent with an MNF-associated reduction in EGFR expression and activity through it effect on glycolysis.

MCF-7 cells [5] = settings: by enhancing cytotoxicity of alkylating agents, cisplatin and melphalan; cited from earlier work

O=C(O)C(=O)CBr [3-bromopyruvate]
cellular survival (PANC-1 cells [1]): lowers cellular survival

COc1ccc(C[C@@H](C)NC[C@H](O)c2cc(O)cc(O)c2)c2ccccc12 [MNF, (R,R′)-4′-methoxy-1-naphthylfenoterol]
reduction in the intracellular concentration of lactate [2]: ~50%
proliferation (PANC-1): significantly reduce proliferation
relative expression of 3-hydroxybutyrate (PANC-1 cells [3]): increase
signal associated with carnitine (PANC-1 cells [3]): significantly upregulated
signal associated with glycine (PANC-1 cells [3]): significantly upregulated
signal associated with leucine (PANC-1 cells [3]): significantly upregulated
signal associated with lysine (PANC-1 cells [3]): significantly upregulated
signal associated with lactate (PANC-1 cells [3]; vs untreated cells): significantly reduced
expression of BCRP (MCF-7 cells [4]): significantly reduced
expression of MRP-1 (MCF-7 cells [4]): significantly reduced
expression of P-gp (MCF-7 cells [4]): significantly reduced
expression of BCRP (MDA-MD-231 cells): reduced
expression of P-gp (MDA-MD-231 cells): reduced

O=C(O)c1nn(Cc2ccc(Cl)cc2Cl)c2ccccc12 [lonidamine]
cellular survival (MCF-7 cells [5]): lowers cellular survival
